Key:
[1] = Acute toxicity (LD50) in rats; conditions: rat, in vivo
Procedure: The compound of this invention for use as the active ingredient of said pharmaceutical composition or dialysis solution is extremely low in toxicity and highly safe and, therefore, can be used advantageously for purposes of this invention [e.g. the LD50 values of L-ascorbyl DL-α-tocopheryl phosphate potassium (hereinafter referred to briefly as EPC-K)≥5 g/kg p.o. (rats) and≥100 mg/kg i.v. (rats)].

[2] = test system: adriamycin nephrosis in rats; experiment: Effect on adriamycin nephrosis in rats; type: in vivo, male SD rats; conditions: 1 mg/kg, i.p. once daily, day 80, mean ± standard error, n=5 to 6
Procedure: The effect of the compound of this Invention on adriamycin nephrosis in rats was evaluated.
Method: This study was conducted in male SD rats (body weight: about 180 g) purchased from Japan SLC. The rats were intravenously dosed with 7.5 mg/kg of adriamycin to induce renal impairment.
The test substance EPC-K was administered intraperitoneally once daily and the rat was sacrificed on day 80 for determination of biochemical parameters. Physiological saline was used as control.

[3] = test system: neutrophil-derived active oxygens formed due to the dialysis membrane; experiment: Chemiluminescence assay of scavenging effect on neutrophil-derived active oxygens formed due to the dialysis membrane; type: cell-based, SD rat; conditions: PMMA membrane, MCLA; for Chemiluminescence photon count: mean ± standard deviation, n=5, blank test 42392 ± 12789
Procedure: The scavenging effect of the compound of this invention on the neutrophil-derived active oxygens formed due to the dialysis membrane was evaluated by the chemiluminescence assay.
An SD rat was intraperitoneally infused with 120 ml/kg of 1% casein-containing Krebs-Ringer bicarbonate buffer (Ca^2+ -free) and kept as it was for 15 to 18 hours. Then, ice-cooled phosphate buffered saline (Ca^2+ /Mg^2+ -free, briefly PBS) was infused into the peritoneal cavity and after massaging the abdomen, laparotomy was performed to collect the peritoneal fluid. This fluid was centrifuged (4° C.) at 150G for 5 minutes and the sediment was subjected to hemolysis treatment, washed with 2 portions of PBS and suspended in Hanks buffered saline (Ca^2+ /Mg^2+ -free; abbreviation: HBS) at a concentration of 5×10^6 cells/ml.
The hollow fiber of polymethyl methacrylate (PMMA) was taken out from the Filtrizer cartridge, rinsed and dried. The dried hollow fiber was milled in a mortar (to a particle diameter of about 20 to 100 μm) and suspended in HBS at a concentration of 100 mg/ml.
MCLA (2-methyl-6-[p-methoxyphenyl]-3,7,-dihydroimidazolo[1,2-a]pyrazin-3-one)(Cypridina luciferin analog; manufactured by Tokyo Kasei Kogyo Co., Ltd.) was dissolved in HBS at a concentration of 5 μM.
EPC-K was dissolved in HBS at final concentrations of 1 μM to 10 μM. To 100 μl of each solution were added 300 μl of the neutrophil suspension and 100 μl of the MCLA solution and the mixture was incubated at 37° for 10 minutes. Then, 20 μl of the PMMA suspension was added and the resulting MCLA-dependent chemiluminescence was quantitated in 5 replicates. From the photon count at maximal emission was subtracted the minimal count immediately following addition of the PMMA suspension to arrive at the chemiluminescence photon count (CPM). The count obtained with HBS (blank test) was compared with the count obtained with the drug and the percent inhibition (%) was calculated by means of the following equation. [formula]

[4] = test system: adenine nephrosis in rats; experiment: Effect on adenine nephrosis in rats; type: in vivo, male Wistar rats; conditions: i.p. once a day, mean ± standard error, n=8 to 9; for Creatinine: control (saline) 1.95 ± 0.64; for BUN: control (saline) 98.4 ± 34.5
Procedure: The effect of the compound of this invention on adenine nephrosis in rats was evaluated.
Method: Male Wistar rats, aged 7 weeks, were purchased from SLC and used.
The rats were put on a 0.5% adenine-containing diet for 30 days to induce adenine nephrosis.
The test substance EPC-K was intraperitoneally administered once a day. Physiological saline was used as control.

salt-sensitive rats = experiment: Effect on salt-sensitive rats (NaCl-induced renal impairment); type: in vivo, male Dahl S rats; conditions: mean ± standard error, n=4 to 6, * p < 0.0001, control 30.0 ± 2.9
Procedure: The effect of the compound of this invention on salt-sensitive rats was investigated.
Method: Male Dahl S rats (salt-sensitive rats) were purchased from Seiwa Experimental Animal Institute and loaded with 8% aqueous solution of sodium chloride to induce renal impairment.
The test substance EPC-K was administered once daily for 4 weeks. As a control, distilled water was orally administered.

[5] = test system: rats with vitamin E deficiency; experiment: Effect on renal impairment in rats with vitamin E deficiency (DL-buthionine sulfoximine induced); type: in vivo, male Wistar rats; conditions: 141 mg/5 ml/kg p.o. once daily for one week, vitamin E-deficient rats + BSO, mean ± standard error, n=5
Procedure: The effect of the compound of this invention, administered orally, on renal impairment in rats with vitamin E deficiency was evaluated.
Test substance: L-ascorbyl DL-α-tocopheryl phosphate potassium (abbreviation: EPC-K).
Method: Male Wistar rats were purchased from Japan Clea, Inc. at the age of 4 weeks and put on a vitamin E-deficient diet for 10 weeks before the experiment.
The rat model of renal impairment was constructed by administering 1 mmol/kg of DL-buthionine sulfoximine (abbreviation: BSO), a glutathione (abbreviation: GSH) synthesis inhibitor, intraperitoneally once a day for 3 consecutive days.
Five hours after the last administration of DL-buthionine sulfoximine (BSO), the blood was drawn from the lower abdominal aorta under pentobarbital anesthesia and the serum levels of creatinine, urea nitrogen (abbreviation: BUN) and lipid peroxide (abbreviation: LPO), which are indicators of renal function, were determined by Jaffe's method, urease-indophenol method, and Yagi's method, respectively.
The test substance EPC-K was administered orally in a dose of 141 mg/5 ml/kg once daily for one week until the blood sampling day. As a control, distilled water was used.

Cc1c(C)c2c(c(C)c1OP(=O)(O)OC1=C(O)[C@@H]([C@@H](O)CO)OC1=O)CCC(C)(CCCC(C)CCCC(C)CCCC(C)C)O2 (mixture of isomers) [EPC-K, L-ascorbyl DL-α-tocopheryl phosphate potassium]
LD50 ([1]; iv, i.v. (rats)): ≥ 100 mg/kg
LD50 ([1]; po, p.o. (rats)): ≥ 5000 mg/kg
BUN ([2]; * p < 0.0001, control (saline) 23.5 ± 1.7): 18.2 ± 1.2 mg/dL
Creatinine ([2]; control (saline) 0.50 ± 0.28): 0.30 ± 0 mg/dL
LPO ([2]; control (saline) 2.5 ± 1.8): 1.4 ± 0.8 nmol/mL
Urinary protein ([2]; control (saline) 696 ± 710): 119 ± 54 mg/day
Chemiluminescence photon count ([3]; 1 μM): 32230 ± 6949 CPM
Chemiluminescence photon count ([3]; 3 μM): 26800 ± 3057 CPM
Chemiluminescence photon count ([3]; 10 μM): 14518 ± 3648 CPM
inhibition at 1 µM ([3]; Rattus norvegicus, 1 μM, versus blank test (HBS), read-out: Percent inhibition): 24%
inhibition at 3 µM ([3]; Rattus norvegicus, 3 μM, versus blank test (HBS), read-out: Percent inhibition): 36.8%
inhibition at 10 µM ([3]; Rattus norvegicus, 10 μM, versus blank test (HBS), read-out: Percent inhibition): 65.8%
Creatinine ([4]; 5 mg/kg, * p < 0.05): 1.14 ± 0.32 mg/dL
BUN ([4]; 5 mg/kg, * p < 0.05): 61.5 ± 13.2 mg/dL
Creatinine ([4]; 10 mg/kg, ** p < 0.01): 0.73 ± 0.15 mg/dL
BUN ([4]; 10 mg/kg, ** p < 0.01): 40.2 ± 5.2 mg/dL
BUN (salt-sensitive rats; 5 mg/kg, i.p. once daily for 4 weeks): 15.6 ± 2.7 mg/dL
BUN (salt-sensitive rats; 141 mg/kg, p.o. once daily for 4 weeks): 18.5 ± 2.1 mg/dL
Creatinine (serum) ([5]; * p < 0.05, distilled water 5.8 ± 0.2): 2.0 ± 1.3 mg/dL
BUN (serum) ([5]; ** p < 0.01, distilled water 208.5 ± 17.7): 62.5 ± 37.1 mg/dL
LPO (serum lipid peroxide) ([5]; distilled water 5.4 ± 0.9): 3.8 ± 0.1 nmol/mL
